The text below walks through data of US4914091A, “Esters of cephalosporin derivitives” (American Cyanamid Company, priority 1984, dated 1990).

Like-named read-outs stand apart in the source and are kept apart here.

The test system of test [1] is Klebsiella pneumoniae. In words: In vivo activity against lethal intraperitoneal Klebsiella pneumoniae infection in mice, single oral or subcutaneous dose. Set-up: species or system Klebsiella pneumoniae (infection in Charles River CD-1 mice). Particulars: CD-1 mice. An excerpt:
Other representative compounds of the present invention were similarly tested against a lethal infection of Klebsiella pneumoniae in mice. Charles River CD-1 mice, each weighing about 20 g, were infected intraperitoneally with a lethal dose of Klebsiella pneumoniae. The median effective doses (ED50) in mg/kg were derived from the pooled data of three separate tests (including two range finding tests). The control, 7β-[2-(2-amino thiazol-4-yl)-(Z)-2-methoximinoacetamido]-3-[(1,2,3-thiadiazol-5-yl)-thiomethyl]ceph-3-em-4-carboxylic acid, provides a basis for comparison. All compounds were administered by single subcutaneous dose and single oral dose.

Test [2] deals with Escherichia coli No. 311. In words: In vivo activity against lethal intraperitoneal Escherichia coli No. 311 infection in mice, single oral or subcutaneous dose. Set-up: species or system Escherichia coli (infection in Charles River CD-1 mice). Particulars: E. coli No. 311, CD-1 mice; for ED50: Escherichia coli, pooled data of three tests (cefaclor: estimated from two separate tests). The procedure: To establish the pro-drug activity of, for example, the pivaloyloxymethyl ester of 7β-[2-(2-aminothiazol-4-yl)-(Z)-2-methoximinoacetamido]-3-[(1,2,3-thiadiasol-5-yl)-thiomethyl]ceph-3-em-4-carboxylic acid, the unesterified carboxylic acid and cefaclor (as control) were administered by single subcutaneous dose and single oral dose to separate groups of Charles River CD-1 mice, each weighing about 20 g, which mice had been infected intraperitoneally with a lethal dose of Escherichia coli No. 311. The median effective doses (ED50) in mg/kg were derived from the pooled data of three separate tests (including two range finding tests. The results of this testing appear in Table I.

The mark [3] stands for this setting: single oral dose, pooled data of three tests, (95% Conf. Lim.), read-out: ED50, Single Oral Dose.
The mark [4] stands for this setting: sc, single subcutaneous dose, pooled data of three tests, (95% Conf. Lim.), read-out: ED50, Single Subcut. Dose.
[5] abbreviates: sc, single subcutaneous dose, read-out: ED50, Single Subcut. Dose.
Setting [6] is: single oral dose, read-out: ED50, Single Oral Dose.

Usually ED50 stands for the dose that gives a 50% effect, or the effect in half of the subjects. For the molecule `CCOC(=O)OC(C)OC(=O)C1=C(CSc2cnns2)CS[C@@H]2[C@H](NC(=O)/C(=N\OC)c3csc(N)n3)C(=O)N12` (stereo partly drawn) [Ethoxycarbonyl-Ethoxyethyl ester], the “Ratio Oral ED50 / Subcutaneous ED50” value in test [1] was 2. Besides, the ED50 in test [1] (setting [3]) was 1 to 2 mg/kg; in test [1] (setting [4]) it was 0.5 to 1 mg/kg.

Regarding `N[C@@H](C(=O)N[C@@H]1C(=O)N2C(C(=O)O)=C(Cl)CS[C@H]12)c1ccccc1` [Cefaclor], the “Ratio Oral ED50 / Subcutaneous ED50” value in test [2] is 2.8. The results for the ED50 in test [2] (setting [5]) and in test [2] (setting [6]) were 5.7 mg/kg and 16 mg/kg, respectively.

Turning to `CCCCCCCCCCOCOC(=O)C1=C(CSc2cnns2)CS[C@@H]2[C@H](NC(=O)/C(=N\OC)c3csc(N)n3)C(=O)N12` [Declyoxymethyl ester, Decyloxymethyl 7β-[2-(2-aminothiazol-4-yl)-(Z)-2-methoximinoacetamido]-3-[(1,2,3-thiadiazol-5-yl)-thiomethyl]ceph-3-em-4-carboxylate], in test [1], the “Ratio Oral ED50 / Subcutaneous ED50” value is 4. In addition, the ED50 lay within 8 to 16 mg/kg in test [1] (setting [3]) and 2 to 4 mg/kg in test [1] (setting [4]).

As to `CO/N=C(\C(=O)N[C@@H]1C(=O)N2C(C(=O)OC(C)OC(C)=O)=C(CSc3cnns3)CS[C@H]12)c1csc(N)n1` (stereo partly drawn) [Acetoxyethyl ester, Acetoxyethyl 7β-[2-(2-aminothiazol-4-yl)-(Z)-2-methoximinoacetamido]-3-[(1,2,3-thiadiazol-5-yl)-thiomethyl]ceph-3-em-4-carboxylate], in test [1], the “Ratio Oral ED50 / Subcutaneous ED50” value is recorded as 2. Further, the ED50 in test [1] (setting [3]) was in the range of 2 to 4 mg/kg; in test [1] (setting [4]), 1 to 2 mg/kg.

Regarding `CO/N=C(\C(=O)N[C@@H]1C(=O)N2C(C(=O)OCOC(=O)C(C)(C)C)=C(CSc3cnns3)CS[C@H]12)c1csc(N)n1` [Pivaloyloxymethyl ester, Pivaloyloxymethyl 7β-[2-(2-aminothiazol-4-yl)-(Z)-2-methoximinoacetamido]-3-[(1,2,3-thiadiazol-5-yl)-thiomethyl]ceph-3-em-4-carboxylate], the “Ratio Oral ED50 / Subcutaneous ED50” value in test [2] is given as 3.8. For the same molecule, the ED50 in test [2] (setting [5]) is 0.53 mg/kg; in test [2] (setting [6]), 2 mg/kg.

`COCOC(=O)C1=C(CSc2cnns2)CS[C@@H]2[C@H](NC(=O)/C(=N\OC)c3csc(N)n3)C(=O)N12` [Methoxymethyl ester, Methoxymethyl 7β-[2-(2-aminothiazol-4-yl)-(Z)-2-methoximinoacetamido]-3-[(1,2,3-thiadiazol-5-yl)-thiomethyl]ceph-3-em-4-carboxylate]: the “Ratio Oral ED50 / Subcutaneous ED50” value in test [1] is 16. The ED50 in test [1] (setting [3]) lay within 8 to 16 mg/kg; in test [1] (setting [4]) it was 0.5 to 1 mg/kg.

For the molecule `CO/N=C(\C(=O)N[C@@H]1C(=O)N2C(C(=O)OCOC(=O)C34CC5CC(CC(C5)C3)C4)=C(CSc3cnns3)CS[C@H]12)c1csc(N)n1` [Adamantylcarbonyl-oxymethyl, Adamantane-1-carbonyloxymethyl-7β-[2-(2-aminothiazol-4-yl)-(Z)-2-methoximinoacetamido]-3-[(1,2,3-thiadiazol-5-yl)-thiomethyl]ceph-3-em-4-carboxylate], in test [1], the “Ratio Oral ED50 / Subcutaneous ED50” value was 2. Moreover, the ED50 is 2 to 4 mg/kg in test [1] (setting [3]) and 1 to 2 mg/kg in test [1] (setting [4]).

`CO/N=C(\C(=O)N[C@@H]1C(=O)N2C(C(=O)O)=C(CSc3cnns3)CS[C@H]12)c1csc(N)n1` [Unesterified acid, 7β-[2-(2-aminothiazol-4-yl)-(Z)-2-methoximinoacetamido]-3-[(1,2,3-thiadiazol-5-yl)-thiomethyl]ceph-3-em-4-carboxylic acid, reference compound]: the “Ratio Oral ED50 / Subcutaneous ED50” value came out at 28 in test [2] and 16 in test [1]. Further, the ED50 in test [2] (setting [5]) was 0.26 mg/kg; in test [2] (setting [6]) it was 7.2 mg/kg; in test [1] (setting [3]), 8 to 16 mg/kg; in test [1] (setting [4]) it was 0.5 to 1 mg/kg.

Turning to `CO/N=C(\C(=O)N[C@@H]1C(=O)N2C(C(=O)OC3OC(=O)c4ccccc43)=C(CSc3cnns3)CS[C@H]12)c1csc(N)n1` (stereo partly drawn) [Phthalidyl ester, Phthalidyl 7β-[2-(2-aminothiazol-4-yl)-(Z)-2-methoximinoacetamido]-3-[(1,2,3-thiadiazol-5-yl)-thiomethyl]ceph-3-em-4-carboxylate], the “Ratio Oral ED50 / Subcutaneous ED50” value in test [1] was found to be 16. The ED50 in test [1] (setting [3]) was 8 to 16 mg/kg; in test [1] (setting [4]) it was 0.5 to 1 mg/kg.

For `CO/N=C(\C(=O)N[C@@H]1C(=O)N2C(C(=O)OCOC(C)=O)=C(CSc3cnns3)CS[C@H]12)c1csc(N)n1` [Acetoxymethyl, Acetoxymethyl 7β-[2-(2-aminothiazol-4-yl)-(Z)-2-methoximinoacetamido]-3-[(1,2,3-thiadiazol-5-yl)thiomethyl]ceph-3-em-4-carboxylate], in test [1], the “Ratio Oral ED50 / Subcutaneous ED50” value is 8. The ED50 in test [1] (setting [3]) lay within 8 to 16 mg/kg; in test [1] (setting [4]), 1 to 2 mg/kg.

With `CCCCCCCCCCCCCC(=O)OCOC(=O)C1=C(CSc2cnns2)CS[C@@H]2[C@H](NC(=O)/C(=N\OC)c3csc(N)n3)C(=O)N12` [Myristoyloxymethyl ester, Myristoyloxymethyl 7β-[2-(2-aminothiazol-4-yl)-(Z)-2-methoximinoacetamido]-3-[(1,2,3-thiadiazol-5-yl)-thiomethyl]ceph-3-em-4-carboxylate], in test [1], the “Ratio Oral ED50 / Subcutaneous ED50” value is recorded as 16. Also, the median effective dose (ED50) in test [1] (setting [3]) lay within 8 to 16 mg/kg; in test [1] (setting [4]), 0.5 to 1 mg/kg.

As to “Methylthiomethyl 7β-[2-(2-aminothiazol-4-yl)-(Z)-2-methoximinoacetamido]-3-[(1,2,3-thiadiazol-5-yl)-thiomethyl]ceph-3-em and ceph-2-em-carboxylate [methylthiomethyl ester]”, the “Ratio Oral ED50 / Subcutaneous ED50” value in test [1] stood at 4. Moreover, in test [1] (single oral dose, pooled data of three tests, (95% Conf. Lim.)), the “ED50, Single Oral Dose” value was in the range of 8 to 16 mg/kg. Besides, the “ED50, Single Subcut. Dose” value in test [1] (single subcutaneous dose, pooled data of three tests, (95% Conf. Lim.)) is 2 to 4 mg/kg.

In the case of `CO/N=C(\C(=O)N[C@@H]1C(=O)N2C(C(=O)OCOC(=O)c3ccccc3)=C(CSc3cnns3)CS[C@H]12)c1csc(N)n1` [benzoyloxymethyl ester, Benzoyloxymethyl 7β-[2-(2-aminothiazol-4-yl)-(Z)-2-methoximinoacetamido]-3-[(1,2,3-thiadiazol-5-yl)-thiomethyl]ceph-3-em-4-carboxylate], the “Ratio Oral ED50 / Subcutaneous ED50” value in test [1] is reported as 2. The values for the ED50 in test [1] (setting [3]) and in test [1] (setting [4]) were 4 to 8 mg/kg and 2 to 4 mg/kg, respectively.
